Experimental data published in ChEMBL document CHEMBL1154622, “Structure-guided design of potent and selective pyrimidylpyrrole inhibitors of extracellular signal-regulated kinase (ERK) using conformational control” (J Med Chem, 2009).

Columns and labels:
[1] = biological target: Serine/threonine-protein kinase Sgk1 (Homo sapiens) (UniProt O00141); experiment: Inhibition of SGK1 at 1 uM
[2] = biological target: Testis-specific serine/threonine-protein kinase 2 (Homo sapiens) (UniProt Q96PF2); experiment: Inhibition of TSSK2 at 1 uM
[3] = biological target: Tyrosine-protein kinase receptor TYRO3 (Homo sapiens) (UniProt Q06418); experiment: Inhibition of TYRO3 at 1 uM
[4] = Inhibition of PKA
[5] = biological target: Tyrosine-protein kinase JAK2 (Homo sapiens, UniProt O60674); experiment: Inhibition of JAK2
[6] = biological target: Tyrosine-protein kinase JAK3 (Homo sapiens, UniProt P52333); experiment: Inhibition of JAK3
[7] = biological target: RAC-gamma serine/threonine-protein kinase (Homo sapiens, UniProt Q9Y243); experiment: Inhibition of AKT3
Sequence of RAC-gamma serine/threonine-protein kinase (Q9Y243 whole entry): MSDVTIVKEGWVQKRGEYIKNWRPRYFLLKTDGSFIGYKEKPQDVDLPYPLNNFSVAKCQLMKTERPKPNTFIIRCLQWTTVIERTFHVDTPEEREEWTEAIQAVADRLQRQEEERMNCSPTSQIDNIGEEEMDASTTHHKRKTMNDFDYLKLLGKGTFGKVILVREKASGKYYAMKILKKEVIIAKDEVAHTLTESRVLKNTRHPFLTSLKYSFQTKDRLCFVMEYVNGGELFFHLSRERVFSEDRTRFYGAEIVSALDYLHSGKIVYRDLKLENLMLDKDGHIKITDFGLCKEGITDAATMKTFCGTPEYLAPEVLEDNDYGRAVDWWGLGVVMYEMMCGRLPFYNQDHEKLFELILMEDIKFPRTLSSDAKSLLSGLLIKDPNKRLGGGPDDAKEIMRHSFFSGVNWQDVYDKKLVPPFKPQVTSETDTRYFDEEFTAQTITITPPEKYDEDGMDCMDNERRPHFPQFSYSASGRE

[8] = biological target: Dual specificity mitogen-activated protein kinase kinase 1 (Homo sapiens, UniProt Q02750); experiment: Inhibition of MEK1
[9] = biological target: Mitogen-activated protein kinase kinase kinase 3 (Homo sapiens, UniProt Q99759); experiment: Inhibition of MEKK3
Sequence of Mitogen-activated protein kinase kinase kinase 3 (Q99759 whole entry): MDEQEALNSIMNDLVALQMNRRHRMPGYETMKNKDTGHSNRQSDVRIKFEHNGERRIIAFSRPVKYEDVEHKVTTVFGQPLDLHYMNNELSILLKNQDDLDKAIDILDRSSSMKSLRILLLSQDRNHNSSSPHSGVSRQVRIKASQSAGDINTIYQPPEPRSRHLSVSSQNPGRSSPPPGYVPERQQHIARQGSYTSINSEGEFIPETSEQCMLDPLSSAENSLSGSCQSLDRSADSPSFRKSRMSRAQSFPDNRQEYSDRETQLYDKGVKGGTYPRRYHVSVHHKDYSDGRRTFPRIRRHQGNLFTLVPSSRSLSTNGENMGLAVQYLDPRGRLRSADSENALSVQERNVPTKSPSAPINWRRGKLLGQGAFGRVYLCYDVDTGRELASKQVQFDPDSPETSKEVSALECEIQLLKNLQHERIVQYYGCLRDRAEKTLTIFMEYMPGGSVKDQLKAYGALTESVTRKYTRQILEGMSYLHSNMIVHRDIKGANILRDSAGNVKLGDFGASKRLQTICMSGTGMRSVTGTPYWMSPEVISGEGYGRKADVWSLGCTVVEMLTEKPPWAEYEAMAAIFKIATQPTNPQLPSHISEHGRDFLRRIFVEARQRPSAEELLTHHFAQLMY

[10] = biological target: Tyrosine-protein kinase ZAP-70 (Homo sapiens, UniProt P43403); experiment: Inhibition of ZAP70
[11] = biological target: Mitogen-activated protein kinase kinase kinase 14 (Homo sapiens, UniProt Q99558); experiment: Inhibition of NIK
[12] = biological target: Citron Rho-interacting kinase (Homo sapiens, UniProt O14578); experiment: Inhibition of CIT
[13] = biological target: Tyrosine-protein kinase ABL1 (Homo sapiens) (UniProt P00519); experiment: Inhibition of ABL1 at 1 uM
[14] = biological target: RAC-beta serine/threonine-protein kinase (Homo sapiens) (UniProt P31751); experiment: Inhibition of AKT2 at 1 uM
[15] = biological target: Cytoplasmic tyrosine-protein kinase BMX (Homo sapiens) (UniProt P51813); experiment: Inhibition of BMX at 1 uM
[16] = biological target: Cyclin-dependent kinase 5 (Homo sapiens) (UniProt Q00535); experiment: Inhibition of CDK5 at 1 uM
Sequence of Cyclin-dependent kinase 5 (Homo sapiens) (Q00535 whole entry, looked up): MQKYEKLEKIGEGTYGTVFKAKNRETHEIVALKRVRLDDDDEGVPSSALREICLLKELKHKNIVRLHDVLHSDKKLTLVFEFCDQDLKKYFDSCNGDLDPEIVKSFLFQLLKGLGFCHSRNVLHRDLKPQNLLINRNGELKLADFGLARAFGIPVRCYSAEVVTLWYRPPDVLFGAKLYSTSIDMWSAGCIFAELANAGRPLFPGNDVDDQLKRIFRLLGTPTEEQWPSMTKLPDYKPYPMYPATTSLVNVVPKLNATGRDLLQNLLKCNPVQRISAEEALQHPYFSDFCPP

[17] = Inhibition of CK2 at 2 uM
[18] = biological target: Tyrosine-protein kinase CSK (Homo sapiens) (UniProt P41240); experiment: Inhibition of CSK at 2 uM
Sequence of Tyrosine-protein kinase CSK (Homo sapiens) (P41240 2-450 limits assumed): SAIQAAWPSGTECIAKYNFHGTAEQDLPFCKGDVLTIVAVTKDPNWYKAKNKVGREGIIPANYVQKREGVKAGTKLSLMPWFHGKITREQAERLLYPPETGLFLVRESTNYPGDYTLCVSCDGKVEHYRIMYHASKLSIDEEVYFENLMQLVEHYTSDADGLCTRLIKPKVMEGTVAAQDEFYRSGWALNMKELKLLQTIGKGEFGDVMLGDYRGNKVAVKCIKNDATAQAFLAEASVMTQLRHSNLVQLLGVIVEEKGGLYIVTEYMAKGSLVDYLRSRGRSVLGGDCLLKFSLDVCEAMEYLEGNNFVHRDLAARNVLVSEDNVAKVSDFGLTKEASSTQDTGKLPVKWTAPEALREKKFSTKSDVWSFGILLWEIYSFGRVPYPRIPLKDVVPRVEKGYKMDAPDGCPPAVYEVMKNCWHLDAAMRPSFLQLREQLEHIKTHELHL

[19] = biological target: Tyrosine-protein kinase CSK (Homo sapiens) (UniProt P41240); experiment: Inhibition of CSK at 1 uM
[20] = biological target: Death-associated protein kinase 1 (Homo sapiens) (UniProt P53355); experiment: Inhibition of DAPK1 at 1 uM
[21] = biological target: Dual specificity tyrosine-phosphorylation-regulated kinase 2 (Homo sapiens) (UniProt Q92630); experiment: Inhibition of DYRK2 at 1 uM
[22] = biological target: Ephrin type-B receptor 2 (Homo sapiens) (UniProt P29323); experiment: Inhibition of EPH-B2 at 1 uM
[23] = biological target: Insulin-like growth factor 1 receptor (Homo sapiens) (UniProt P08069); experiment: Inhibition of IGF1R at 1 uM
[24] = biological target: Insulin receptor (Homo sapiens) (UniProt P06213); experiment: Inhibition of INSR at 1 uM
Sequence of Insulin receptor (Homo sapiens) (P06213 28-758 limits assumed): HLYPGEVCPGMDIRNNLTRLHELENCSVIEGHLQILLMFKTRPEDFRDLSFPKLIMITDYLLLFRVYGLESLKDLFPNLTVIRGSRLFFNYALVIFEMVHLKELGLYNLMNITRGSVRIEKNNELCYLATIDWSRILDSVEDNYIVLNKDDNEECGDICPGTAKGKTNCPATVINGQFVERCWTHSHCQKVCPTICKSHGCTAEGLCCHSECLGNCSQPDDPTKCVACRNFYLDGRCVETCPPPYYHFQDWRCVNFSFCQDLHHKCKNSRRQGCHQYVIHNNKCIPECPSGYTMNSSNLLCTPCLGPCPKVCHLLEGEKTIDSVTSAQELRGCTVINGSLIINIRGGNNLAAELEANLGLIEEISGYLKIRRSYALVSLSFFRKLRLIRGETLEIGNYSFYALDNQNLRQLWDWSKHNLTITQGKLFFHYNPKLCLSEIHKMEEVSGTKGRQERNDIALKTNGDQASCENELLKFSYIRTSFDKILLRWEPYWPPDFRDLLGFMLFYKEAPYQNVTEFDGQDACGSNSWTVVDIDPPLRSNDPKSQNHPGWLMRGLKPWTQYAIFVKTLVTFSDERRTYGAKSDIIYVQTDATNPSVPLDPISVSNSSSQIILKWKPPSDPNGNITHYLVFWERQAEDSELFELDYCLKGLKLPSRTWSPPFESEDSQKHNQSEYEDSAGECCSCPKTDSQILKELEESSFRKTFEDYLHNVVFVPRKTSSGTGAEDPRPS
Sequence of Insulin receptor (Homo sapiens) (P06213 763-1382 limits assumed): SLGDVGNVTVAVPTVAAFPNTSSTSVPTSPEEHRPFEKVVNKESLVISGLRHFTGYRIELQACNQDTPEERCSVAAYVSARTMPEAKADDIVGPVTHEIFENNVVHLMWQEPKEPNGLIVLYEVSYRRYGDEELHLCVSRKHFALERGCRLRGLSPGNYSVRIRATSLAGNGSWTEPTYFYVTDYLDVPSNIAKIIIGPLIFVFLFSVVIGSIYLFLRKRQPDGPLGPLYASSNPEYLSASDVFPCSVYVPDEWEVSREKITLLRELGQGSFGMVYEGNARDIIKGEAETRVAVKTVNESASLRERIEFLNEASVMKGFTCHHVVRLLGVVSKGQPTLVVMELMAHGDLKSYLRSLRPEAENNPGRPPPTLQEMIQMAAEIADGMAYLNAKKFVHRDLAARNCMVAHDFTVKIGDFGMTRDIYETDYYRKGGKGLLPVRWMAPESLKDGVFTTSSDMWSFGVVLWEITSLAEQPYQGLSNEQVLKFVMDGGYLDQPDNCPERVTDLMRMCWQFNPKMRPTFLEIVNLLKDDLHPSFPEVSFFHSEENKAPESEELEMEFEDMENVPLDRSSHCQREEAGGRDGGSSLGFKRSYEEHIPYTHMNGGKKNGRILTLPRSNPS

[25] = biological target: Tyrosine-protein kinase Lck (Homo sapiens) (UniProt P06239); experiment: Inhibition of LCK at 2 uM
[26] = biological target: MAP kinase-activated protein kinase 2 (Homo sapiens) (UniProt P49137); experiment: Inhibition of MAPKAPK-2 at 1 uM
[27] = biological target: Misshapen-like kinase 1 (Homo sapiens) (UniProt Q8N4C8); experiment: Inhibition of MINK at 1 uM
[28] = biological target: Mitogen-activated protein kinase 13 (Homo sapiens) (UniProt O15264); experiment: Inhibition of P38delta at 2 uM
[29] = biological target: Serine/threonine-protein kinase PAK 1 (Homo sapiens) (UniProt Q13153); experiment: Inhibition of PAK1 at 1 uM
[30] = biological target: Serine/threonine-protein kinase PAK 2 (Homo sapiens) (UniProt Q13177); experiment: Inhibition of PAK2 at 1 uM
[31] = biological target: Serine/threonine-protein kinase PAK 3 (Homo sapiens) (UniProt O75914); experiment: Inhibition of PAK3 at 1 uM
Sequence of Serine/threonine-protein kinase PAK 3 (Homo sapiens) (O75914 whole entry, looked up, the tested form may be a part): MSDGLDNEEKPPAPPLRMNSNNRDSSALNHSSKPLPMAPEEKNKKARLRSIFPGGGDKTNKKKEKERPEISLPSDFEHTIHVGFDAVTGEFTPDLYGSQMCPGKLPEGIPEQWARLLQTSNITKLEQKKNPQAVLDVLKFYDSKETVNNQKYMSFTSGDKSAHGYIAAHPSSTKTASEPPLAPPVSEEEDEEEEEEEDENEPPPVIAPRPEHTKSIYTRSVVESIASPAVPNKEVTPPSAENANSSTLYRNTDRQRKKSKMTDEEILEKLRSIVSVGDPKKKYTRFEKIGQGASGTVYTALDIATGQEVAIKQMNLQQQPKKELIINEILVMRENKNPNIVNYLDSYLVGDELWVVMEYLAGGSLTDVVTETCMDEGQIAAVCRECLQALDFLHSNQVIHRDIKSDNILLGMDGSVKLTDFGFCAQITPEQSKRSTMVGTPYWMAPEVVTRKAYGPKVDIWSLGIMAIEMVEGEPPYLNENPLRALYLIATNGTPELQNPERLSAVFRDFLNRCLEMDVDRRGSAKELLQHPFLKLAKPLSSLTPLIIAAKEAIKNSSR

[32] = biological target: PAS domain-containing serine/threonine-protein kinase (Homo sapiens) (UniProt Q96RG2); experiment: Inhibition of PASK at 1 uM
[33] = biological target: Serine/threonine-protein kinase pim-1 (Homo sapiens) (UniProt P11309); experiment: Inhibition of PIM1 at 1 uM
Sequence of Serine/threonine-protein kinase pim-1 (Homo sapiens) (P11309 whole entry, looked up): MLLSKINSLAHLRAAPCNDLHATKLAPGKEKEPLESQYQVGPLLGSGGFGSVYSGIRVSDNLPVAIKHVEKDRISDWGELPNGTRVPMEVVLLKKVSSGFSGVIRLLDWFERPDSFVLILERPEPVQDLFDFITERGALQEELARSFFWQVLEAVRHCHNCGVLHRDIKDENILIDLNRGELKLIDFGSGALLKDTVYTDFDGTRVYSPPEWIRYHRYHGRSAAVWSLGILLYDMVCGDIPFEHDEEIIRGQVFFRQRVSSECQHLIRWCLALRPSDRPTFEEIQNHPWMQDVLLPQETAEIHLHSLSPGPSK

[34] = biological target: Serine/threonine-protein kinase pim-2 (Homo sapiens) (UniProt Q9P1W9); experiment: Inhibition of PIM2 at 1 uM
Sequence of Serine/threonine-protein kinase pim-2 (Homo sapiens) (Q9P1W9 whole entry, looked up): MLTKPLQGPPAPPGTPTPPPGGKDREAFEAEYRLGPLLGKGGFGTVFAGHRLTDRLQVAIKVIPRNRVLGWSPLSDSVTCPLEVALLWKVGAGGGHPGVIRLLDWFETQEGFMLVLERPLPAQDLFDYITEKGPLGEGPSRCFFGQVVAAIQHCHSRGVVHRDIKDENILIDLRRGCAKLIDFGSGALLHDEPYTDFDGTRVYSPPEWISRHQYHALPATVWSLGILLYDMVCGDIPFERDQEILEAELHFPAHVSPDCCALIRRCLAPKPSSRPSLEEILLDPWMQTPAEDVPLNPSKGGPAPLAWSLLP

[35] = biological target: Protein kinase C theta type (Homo sapiens) (UniProt Q04759); experiment: Inhibition of PKCtheta at 2 uM
[36] = biological target: Protein-tyrosine kinase 2-beta (Homo sapiens) (UniProt Q14289); experiment: Inhibition of PYK2 at 1 uM
[37] = biological target: Macrophage-stimulating protein receptor (Homo sapiens) (UniProt Q04912); experiment: Inhibition of RON at 1 uM
[38] = biological target: Proto-oncogene tyrosine-protein kinase ROS (Homo sapiens) (UniProt P08922); experiment: Inhibition of ROS at 1 uM
Aurora kinase A = biological target: T1, Aurora kinase A (Homo sapiens, UniProt O14965); experiment: Inhibition of AURA
T1 sequence (O14965 whole entry): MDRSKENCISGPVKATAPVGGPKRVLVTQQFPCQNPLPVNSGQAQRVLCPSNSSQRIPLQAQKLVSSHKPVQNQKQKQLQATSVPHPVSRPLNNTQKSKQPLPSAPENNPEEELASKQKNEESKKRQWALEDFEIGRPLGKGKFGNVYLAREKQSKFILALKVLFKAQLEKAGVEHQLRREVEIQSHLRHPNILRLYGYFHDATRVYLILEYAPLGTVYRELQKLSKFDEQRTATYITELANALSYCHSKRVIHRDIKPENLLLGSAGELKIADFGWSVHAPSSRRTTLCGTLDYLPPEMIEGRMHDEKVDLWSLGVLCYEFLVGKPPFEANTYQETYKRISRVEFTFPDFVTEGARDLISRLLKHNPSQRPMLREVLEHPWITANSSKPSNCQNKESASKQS

[39] = Half life in rat at 3 mg/kg, iv; type: ADME, organism-based; design: dose 3 mg/kg, route intravenous; conditions: in vivo
[40] = AUC (0 to 8 hrs) in rat at 3 mg/kg, iv; type: ADME, organism-based; design: time < 8 hr, dose 3 mg/kg, route intravenous; conditions: plasma
[41] = Plasma concentration in rat at 3 mg/kg, iv after 8 hrs; type: ADME, organism-based; design: dose 3 mg/kg, route intravenous
[42] = Half life in rat at 10 mg/kg, po; type: ADME, organism-based; design: dose 10 mg/kg, route oral; conditions: in vivo
[43] = Half life in mouse at 5 mg/kg, iv; type: ADME, organism-based; design: dose 5 mg/kg, route intravenous; conditions: in vivo
[44] = Plasma concentration in mouse at 5 mg/kg, iv after 8 hrs; type: ADME, organism-based; design: dose 5 mg/kg, route intravenous
[45] = Oral bioavailability in mouse at 33 mg/kg; type: ADME, organism-based; conditions: in vivo
[46] = biological target: Cyclin-dependent kinase 2 (Homo sapiens, UniProt P24941)
[47] = biological target: Dual specificity protein kinase CLK3 (Homo sapiens) (UniProt P49761); conditions: 1 uM
Sequence of Dual specificity protein kinase CLK3 (Homo sapiens) (P49761 whole entry, looked up): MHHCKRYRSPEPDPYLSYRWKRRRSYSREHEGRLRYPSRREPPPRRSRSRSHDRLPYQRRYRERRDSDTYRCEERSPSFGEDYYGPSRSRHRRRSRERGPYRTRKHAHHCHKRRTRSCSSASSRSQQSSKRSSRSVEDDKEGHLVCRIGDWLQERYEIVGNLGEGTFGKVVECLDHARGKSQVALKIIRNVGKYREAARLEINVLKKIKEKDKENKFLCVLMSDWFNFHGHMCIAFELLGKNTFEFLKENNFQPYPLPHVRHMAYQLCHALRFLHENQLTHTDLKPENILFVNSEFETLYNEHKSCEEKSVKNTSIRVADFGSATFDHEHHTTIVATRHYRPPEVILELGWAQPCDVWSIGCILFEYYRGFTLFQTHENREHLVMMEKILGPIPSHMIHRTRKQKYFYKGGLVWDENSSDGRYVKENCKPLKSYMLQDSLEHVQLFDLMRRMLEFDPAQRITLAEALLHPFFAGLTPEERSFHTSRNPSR
Description: Inhibition of CLK3 at 1 uM

In the case of `Cc1cnc(Nc2ccc(F)cc2Cl)nc1-c1c[nH]c(C(=O)N[C@H](CO)c2cccc(Cl)c2)c1`, the inhibition [1] is reported as 15%, the inhibition [2] is reported as 3% and the inhibition [3] is reported as 0%. For the same molecule, the Ki [4] was > 4 µM, the Ki [5] was > 4 µM and the Ki [6] was > 4 µM. The Ki [7] was > 4 µM, the Ki [8] was > 4 µM and the Ki [9] was > 4 µM. For the same molecule, the Ki [10] was > 4 µM, the Ki [11] was > 5 µM and the Ki [12] was > 10 µM. The inhibition [13] was 3%, the inhibition [14] was 0% and the inhibition [15] was 3%. The inhibition [16] was 24%, the inhibition [17] was 0% and the inhibition [18] was 0%. The inhibition [19] was 3%, the inhibition [20] was 2% and the inhibition [21] was 3%. The inhibition [22] was 0%, the inhibition [23] was 2% and the inhibition [24] was 4%. The inhibition [25] was 3%, the inhibition [26] was 0% and the inhibition [27] was 18%. The inhibition [28] was 54%, the inhibition [29] was 3% and the inhibition [30] was 0%. For the same molecule, the inhibition [31] was 3%, the inhibition [32] was 19% and the inhibition [33] was 0%. The inhibition [34] was 3%, the inhibition [35] was 17% and the inhibition [36] was 6%. It also gave an inhibition [37] of 1%, an inhibition [38] of 3% and a Ki (Aurora kinase A) of 0.54 µM. It also gave a half-life [39] of 3.2 h, an AUC(0-t) at 8 h [40] of 1600 ng·h/mL and a concentration at 8 h [41] of 50 ng/mL. It also gave a half-life [42] of 3 h, a half-life [43] of 1.6 h and a concentration at 8 h [44] of 17 ng/mL. For the same molecule, the bioavailability [45] was 67%, the Ki [46] was 0.852 µM and the inhibition [47] was 9%.
